Here are results for 16 compounds from patent US10472356B2, “Bicyclic ketone sulfonamide compounds” (AMGEN INC., priority 2015, dated 2019).

The structures appear in SMILES notation.

Common to all, as to assay type: cell-based
Experiment [1] has as its target T1, human Nav1.7 (Homo sapiens, UniProt Q15858).
T1 construct: expressed in transfected cells; host or cells: HEK293
Description: Nav 1.7 In Vitro PatchXpress (PX) Assay. The note with it: HEK 293 cells stably transfected with human Nav1.7; PatchXpress whole cell voltage clamp; partially inactivated state (holding potential yielding 20 to 50% inactivation); read-out: hNav1.7 PX IC50. In outline:
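Percent inhibition of peak sodium current taken after 3 min exposure to one compound concentration, 3–5 cells each, with IC50 curve fits. Partially inactivated channels (20–50% inactivation at holding potential) in Nav1.7-HEK 293 cells, activated by 20 ms steps to −10 mV every 10 s.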

Experiment [2] concerns the target T1, human Nav1.7. The experiment in a line: Nav 1.7 IWQ In Vitro Assay (IonWorks Quattro). The note with it: HEK293 cells stably transfected with human Nav 1.7; IonWorks Quattro population patch-clamp; 26th pulse to −20 mV, 5 Hz; cells unclamped 5 to 8 minutes with compound; read-out: hNav1.7 IWQ IC50. As for the experimental part: Nav 1.7 or Nav 1.5 IWQ In Vitro Assay
HEK293 cells stably transfected with either human Nav 1.7 or human Nav 1.5 were recorded in population patch-clamp mode with the IonWorks® Quattro automated electrophysiology system (Molecular Devices, LLC, Sunnyvale, Calif.). Cells were voltage clamped to −110 mV for three seconds (Nav 1.7) or half a second (Nav 1.5) and sodium currents were elicited by a train of 26 depolarizations of 150 msec duration to −20 mV (Nav 1.7) or 0 mV (Nav 1.5) at a frequency of 5 Hz. Cells were then left unclamped for a period of 5 to 8 minutes while a single concentration of test compound was added. Following this compound incubation period, cells were then reclamped to −110 mV for three seconds (Nav1.7) or half a second (Nav1.5) to recover unbound channels and put through the same 26 pulse voltage protocol as above. Peak inward current during the 26th pulse to −20 mV (Nav 1.7) or 0 mV (Nav 1.5) in the presence of compound was divided by the peak inward current evoked by the 26th pulse to −20 mV (Nav1.7) or 0 mV (Nav1.5) in the absence of compound to determine percent inhibition. Concentration-response curves of percent.
A general note: Patch clamp records ionic current or voltage across a cell membrane.

The target in experiment [3] is T1, human Nav1.7. Description: Nav 1.7 IWB In Vitro Assay (IonWorks Barracuda). The conditions noted are these: HEK293 cells stably transfected with human Nav 1.7; IonWorks Barracuda population patch-clamp; cells clamped to −20 mV for 4 minutes with compound; 26th pulse; read-out: hNav1.7 IWB IC50. In outline:
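IC50 derived from concentration-response of percent block of the 26th-pulse peak inward current, compound vs none. Protocol: stable human Nav 1.7 HEK293 cells on automated population patch clamp, held at −110 mV, 5 Hz train of 150 ms steps to −20 mV, 4 min compound exposure depolarized at −20 mV, 3 s repolarization, train repeated.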

T1 sequence (Q15858 whole entry): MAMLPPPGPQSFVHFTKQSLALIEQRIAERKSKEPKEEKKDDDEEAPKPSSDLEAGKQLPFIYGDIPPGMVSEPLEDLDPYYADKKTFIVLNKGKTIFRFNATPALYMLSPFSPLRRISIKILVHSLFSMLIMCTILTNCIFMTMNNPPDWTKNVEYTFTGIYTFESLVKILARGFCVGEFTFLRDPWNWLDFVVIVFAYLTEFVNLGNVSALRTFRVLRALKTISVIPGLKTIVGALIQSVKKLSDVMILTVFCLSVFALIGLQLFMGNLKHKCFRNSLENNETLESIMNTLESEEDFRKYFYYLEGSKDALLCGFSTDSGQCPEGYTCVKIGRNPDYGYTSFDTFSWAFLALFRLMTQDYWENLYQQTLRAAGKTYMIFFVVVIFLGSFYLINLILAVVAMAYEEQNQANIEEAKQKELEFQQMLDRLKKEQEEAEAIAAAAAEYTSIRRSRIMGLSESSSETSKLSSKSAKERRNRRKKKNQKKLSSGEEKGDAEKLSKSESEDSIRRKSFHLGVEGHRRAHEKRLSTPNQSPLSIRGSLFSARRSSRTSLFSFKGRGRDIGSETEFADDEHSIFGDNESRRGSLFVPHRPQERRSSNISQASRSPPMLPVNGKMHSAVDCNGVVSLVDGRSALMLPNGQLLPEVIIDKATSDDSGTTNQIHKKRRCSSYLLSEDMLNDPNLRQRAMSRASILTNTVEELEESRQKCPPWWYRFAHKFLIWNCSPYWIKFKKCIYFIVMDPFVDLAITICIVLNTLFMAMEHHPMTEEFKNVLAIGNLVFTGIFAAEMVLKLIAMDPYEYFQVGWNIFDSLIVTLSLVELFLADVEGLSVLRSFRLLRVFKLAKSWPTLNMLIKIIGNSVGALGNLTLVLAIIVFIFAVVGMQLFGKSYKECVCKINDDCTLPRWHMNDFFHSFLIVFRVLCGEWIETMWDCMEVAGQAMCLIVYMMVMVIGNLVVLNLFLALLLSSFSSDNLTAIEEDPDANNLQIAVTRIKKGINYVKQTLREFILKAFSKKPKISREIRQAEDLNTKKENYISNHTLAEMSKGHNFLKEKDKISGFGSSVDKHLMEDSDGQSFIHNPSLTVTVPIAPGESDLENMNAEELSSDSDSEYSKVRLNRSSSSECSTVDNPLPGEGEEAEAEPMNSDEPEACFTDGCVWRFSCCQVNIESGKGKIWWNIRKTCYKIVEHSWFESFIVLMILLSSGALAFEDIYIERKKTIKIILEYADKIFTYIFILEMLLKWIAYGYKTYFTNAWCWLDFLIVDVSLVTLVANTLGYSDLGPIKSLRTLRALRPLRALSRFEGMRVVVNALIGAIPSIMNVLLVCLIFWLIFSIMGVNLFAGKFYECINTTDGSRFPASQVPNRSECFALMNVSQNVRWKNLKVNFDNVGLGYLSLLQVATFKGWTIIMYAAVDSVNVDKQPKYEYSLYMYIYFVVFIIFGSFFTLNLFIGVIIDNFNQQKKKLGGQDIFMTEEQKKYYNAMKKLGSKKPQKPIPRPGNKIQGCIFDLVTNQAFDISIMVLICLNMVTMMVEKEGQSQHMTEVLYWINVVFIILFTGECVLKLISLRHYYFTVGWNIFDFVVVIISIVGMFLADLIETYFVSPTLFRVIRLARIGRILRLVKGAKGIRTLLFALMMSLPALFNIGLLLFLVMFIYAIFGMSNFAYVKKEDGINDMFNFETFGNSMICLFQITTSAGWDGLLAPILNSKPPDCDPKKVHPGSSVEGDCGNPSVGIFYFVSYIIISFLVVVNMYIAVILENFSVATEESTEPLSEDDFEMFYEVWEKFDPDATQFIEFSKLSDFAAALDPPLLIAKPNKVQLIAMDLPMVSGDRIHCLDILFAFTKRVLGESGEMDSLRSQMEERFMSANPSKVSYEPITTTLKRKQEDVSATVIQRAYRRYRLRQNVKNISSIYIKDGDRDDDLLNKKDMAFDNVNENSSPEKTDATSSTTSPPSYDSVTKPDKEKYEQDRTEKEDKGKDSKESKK

By IC50 is commonly meant the point on the concentration scale where inhibition reaches its midpoint. In the case of `COc1cc(-c2ccc(Cl)c(C)c2)c(F)cc1-n1c2c(ccc1=O)CN(S(=O)(=O)Nc1nccs1)CC2` (racemic) [Example 39, (Rac)-1-(4′-chloro-2-fluoro-5-methoxy-3′-methyl-4-biphenylyl)-2-oxo-N-1,3-thiazol-2-yl-1,5,7,8-tetrahydro-1,6-naphthyridine-6(2H)-sulfonamide], the figures for the IC50 in experiment [1], in experiment [2] and in experiment [3] were 35.1 nM, 15.2 nM and 37.8 nM, respectively.
As for `COc1cc(-c2ccc(F)c(F)c2)c(F)cc1-n1c2c(ccc1=O)CN(S(=O)(=O)Nc1ccon1)CC2` (racemic) [Example 20-(Rac), (Rac)-N-3-isoxazolyl-2-oxo-1-(2,3′,4′-trifluoro-5-methoxy-4-biphenylyl)-1,5,7,8-tetrahydro-1,6-naphthyridine-6(2H)-sulfonamide], the concentration for half-maximal inhibition (IC50) in experiment [1] was found to be 159 nM; in experiment [2], 6.7 nM; in experiment [3], 31.5 nM.
Regarding `COc1cc(-c2cc(Cl)ccc2C)c(F)cc1-n1c2c(ccc1=O)CN(S(=O)(=O)Nc1ccon1)CC2` (racemic) [9-(Rac), (Rac)-1-(5′-chloro-2-fluoro-5-methoxy-2′-methyl-4-biphenylyl)-N-3-isoxazolyl-2-oxo-1,5,7,8-tetrahydro-1,6-naphthyridine-6(2H)-sulfonamide], the 50% inhibitory concentration (IC50) in experiment [1] turned out to be 30.7 nM; in experiment [2], 4.6 nM; in experiment [3] it was 5.4 nM.
Consider `COc1cc(-c2cc(F)cc(F)c2)c(F)cc1-n1c2c(ccc1=O)CN(S(=O)(=O)Nc1ccon1)[C@H](C)C2` [Example 3-D-P, P-(7R)-N-3-isoxazolyl-7-methyl-2-oxo-1-(2,3′,5′-trifluoro-5-methoxy-4-biphenylyl)-1,5,7,8-tetrahydro-1,6-naphthyridine-6(2H)-sulfonamide], for which the IC50 in experiment [1] amounted to 230 nM; in experiment [2], 40.5 nM; in experiment [3] it was 40 nM.
Consider `COc1cc(-c2cc(F)cc(Cl)c2)c(F)cc1-n1c2c(ccc1=O)CN(S(=O)(=O)Nc1ncns1)CC2` (single isomer, unassigned) [Example 5-P, P-1-(3′-chloro-2,5′-difluoro-5-methoxy-4-biphenylyl)-2-oxo-N-1,2,4-thiadiazol-5-yl-1,5,7,8-tetrahydro-1,6-naphthyridine-6(2H)-sulfonamide], for which the IC50 in experiment [1] stood at 12.3 nM; in experiment [2] it was 1.6 nM; in experiment [3] it was 1.5 nM.
As for `COc1cc(-c2cc(F)cc(F)c2)c(F)cc1-n1c2c(ccc1=O)CN(S(=O)(=O)Nc1cccc(F)n1)CC2` (single isomer, unassigned) [Example 14-P, P-N-(6-fluoro-2-pyridinyl)-2-oxo-1-(2,3′,5′-trifluoro-5-methoxy-4-biphenylyl)-1,5,7,8-tetrahydro-1,6-naphthyridine-6(2H)-sulfonamide], the IC50 in experiment [1] was 103 nM; in experiment [2], 26 nM; in experiment [3] it was 12.4 nM.
Turning to `COc1cc(Cl)cc(-c2cc(OC)c(-n3c4c(ccc3=O)CN(S(=O)(=O)Nc3ccon3)CC4)cc2F)c1` [Example 89, P-1-(3′-chloro-2-fluoro-5,5′-dimethoxy-[1,1′-biphenyl]-4-yl)-N-(isoxazol-3-yl)-2-oxo-1,2,7,8-tetrahydro-1,6-naphthyridine-6(5H)-sulfonamide], the values for the concentration for half-maximal inhibition (IC50) in experiment [1], in experiment [2] and in experiment [3] were 19.9 nM, 1.3 nM and 8.8 nM, respectively.
Turning to `COc1cc(-c2ccc(Cl)c(C)c2)c(F)cc1-n1c2c(ccc1=O)CN(S(=O)(=O)Nc1ccon1)CC2` (racemic) [Example 24-(Rac), (Rac)-1-(4′-chloro-2-fluoro-5-methoxy-3′-methyl-4-biphenylyl)-N-3-isoxazolyl-2-oxo-1,5,7,8-tetrahydro-1,6-naphthyridine-6(2H)-sulfonamide], the IC50 in experiment [1] was 73.7 nM; in experiment [2], 6.7 nM.
On to `COc1cc(-c2cc(F)cc(Cl)c2)ccc1-n1c2c(ccc1=O)CN(S(=O)(=O)Nc1ccon1)CC2` (single isomer, unassigned) [Example 7-P, P-1-(3′-chloro-5′-fluoro-3-methoxy-4-biphenylyl)-N-3-isoxazolyl-2-oxo-1,5,7,8-tetrahydro-1,6-naphthyridine-6(2H)-sulfonamide], for which the IC50 in experiment [1] is 76.3 nM; in experiment [2] it was 7.8 nM; in experiment [3], 14.3 nM.
Consider `COc1cc(-c2ccc(C)c(F)c2)c(F)cc1-n1c2c(ccc1=O)CN(S(=O)(=O)Nc1ccon1)CC2` (racemic) [Example 21-(Rac), (Rac)-1-(2,3′-difluoro-5-methoxy-4′-methyl-4-biphenylyl)-N-3-isoxazolyl-2-oxo-1,5,7,8-tetrahydro-1,6-naphthyridine-6(2H)-sulfonamide], for which the figures for the IC50 in experiment [1], in experiment [2] and in experiment [3] were 91.3 nM, 14.3 nM and 17.8 nM, respectively.
Turning to `COc1cc(-c2cc(F)cc(F)c2)c(F)cc1-n1c2c(ccc1=O)[C@H](C)N(S(=O)(=O)Nc1ccon1)CC2` (single isomer, unassigned) [Example 3-B-P], the results for the IC50 in experiment [1], in experiment [2] and in experiment [3] were 2080 nM, 224 nM and 197 nM, respectively.
Take `COc1cc(-c2cc(F)cc(Cl)c2)c(F)cc1-n1c2c(ccc1=O)CN(S(=O)(=O)Nc1ncns1)CC2` (racemic) [5-(Rac), (Rac)-1-(3′-chloro-2,5′-difluoro-5-methoxy-4-biphenylyl)-2-oxo-N-1,2,4-thiadiazol-5-yl-1,5,7,8-tetrahydro-1,6-naphthyridine-6(2H)-sulfonamide]: the results for the concentration for half-maximal inhibition (IC50) in experiment [1], in experiment [2] and in experiment [3] were 54.6 nM, 7.3 nM and 6.7 nM, respectively.
Consider `COc1cc(-c2cccc(OC(F)(F)F)c2)c(F)cc1-n1c2c(ccc1=O)CN(S(=O)(=O)Nc1cccnn1)CC2` [Example 66, P-1-(2-fluoro-5-methoxy-3′-(trifluoromethoxy)-[1,1′-biphenyl]-4-yl)-2-oxo-N-(pyridazin-3-yl)-1,2,7,8-tetrahydro-1,6-naphthyridine-6(5H)-sulfonamide], for which the IC50 in experiment [1] turned out to be 37.1 nM; in experiment [2] it was 2.3 nM; in experiment [3], 3.8 nM.
The corresponding values for `COc1cc(-c2cc(F)cc(Cl)c2)c(F)cc1-n1c2c(ccc1=O)CN(S(=O)(=O)Nc1ccon1)CC2` (single isomer, unassigned) [Example 18-P, P-1-(3′-chloro-2,5′-difluoro-5-methoxy-4-biphenylyl)-N-3-isoxazolyl-2-oxo-1,5,7,8-tetrahydro-1,6-naphthyridine-6(2H)-sulfonamide] are 17.5 nM, 2.9 nM and 3.9 nM.
`COc1cc(-c2cc(F)cc(F)c2)c(F)cc1-n1c2c(ccc1=O)CN(S(=O)(=O)Nc1ccon1)CC2` (single isomer, unassigned) [Example 25-P, P-N-3-isoxazolyl-2-oxo-1-(2,3′,5′-trifluoro-5-methoxy-4-biphenylyl)-1,5,7,8-tetrahydro-1,6-naphthyridine-6(2H)-sulfonamide]: the IC50 came out at 176 nM in experiment [1] and 7.2 nM in experiment [2].
`COc1cc(-c2ccc(C(F)F)c(F)c2)c(F)cc1-n1c2c(ccc1=O)CN(S(=O)(=O)Nc1cccnn1)CC2` [Example 87, P-1-(4′-(difluoromethyl)-2,3′-difluoro-5-methoxy-[1,1′-biphenyl]-4-yl)-2-oxo-N-(pyridazin-3-yl)-1,2,7,8-tetrahydro-1,6-naphthyridine-6(5H)-sulfonamide]: the IC50 in experiment [2] was found to be 12.4 nM; in experiment [3], 19 nM.
